From paper PMC11493595, “Stretching the structural envelope of imatinib to reduce β-amyloid production by modulating both β- and γ-secretase cleavages of APP” (Frontiers in Chemistry, 2024)
Where two headings read alike, the source gives them in different places.

Tests used:
N2a695 cells [1] = test: Aβ38, Aβ40, Aβ42 in conditioned media of N2a695 cells, MSD ELISA; type: cell-based; conditions: N2a695 cell supernatant, 5 h, single experiment
Protocol: (§1) N2a695 were cultured in 1:1 OptiMem Reduced Serum Media (Life Technologies): Dulbecco’s Modified Eagle Medium ([+] 4.5 g/L D-glucose [+] L-Glutamine; [−] Sodium pyruvate (Life Technologies) supplemented with 5% fetal bovine serum, 0.4% Penstrep and 0.4% Geneticin and incubated at 37°C in 5% CO2. Antibodies were obtained from The Laboratory of Molecular and Cellular Neuroscience at The Rockefeller University. Human Aβ40 and Aβ42 ELISA plates (Life Technologies) and Plus MSD (Mesoscale Discovery) plates for Aβ Peptide (Aβ38, Aβ40 and Aβ42) Panel 1 (6E10) Kit (Catalog number K15200G) were obtained from Thermo Fisher, Life Technologies and Meso Scale Discovery.
(§2) N2a695 cells were used to screen all new compounds and in the follow-up studies with compounds found active in the preliminary screen. In a typical experiment, 6-well tissue culture plates (Corning) were seeded at 4.0 × 10^5–4.5 × 10^5 N2a695 cells/mL, 2 mL/well for overnight incubation. When cells were >95% confluent, media were exchanged with fresh media containing 10 µM solutions of compounds or DMSO carrier alone and cells were incubated at 37°C in 5% CO2 for 5 h. Culture media were collected and soluble Aβ concentrations in the media were determined by ELISA or MSD plates for human Aβ peptides as per manufacturer instructions. Signals for Aβ were measured using Perkin Elmer Envision and SQ120 MSD ELISA reader. Follow-up studies with N2a695 cells were performed similarly.
Similarly, we evaluated all IMTi-1 and IMTi-2 analogs, including the Boc-protected compounds, using N2a695 cells. […] To further examine the activities of the active analogs and whether IMTi’s has any bias on amyloidogenic vs. nonamyloidogenic cleavage of APP, we retested dozens of IMTi-1 and 2 analogs, including several found active in the screening assay and some tested for the first time using N2a695 cells as above, and performed MSD ELISA of the conditioned media to measure Aβ40, Aβ38, and Aβ42 peptides simultaneously.

N2a695 cells [2] = test: as above; type: cell-based; conditions: N2a695 cell supernatant, 5 h, single experiment; remark: listed apart in the source
[3] = system: β- and γ-cleavages of APP; test: Aβ in N2a cells transiently transfected with APP-FL or APP99 (APP-βCTF): BACE vs γ-secretase cleavage; type: cell-based; conditions: N2a cells transiently transfected with APP695 (APP-FL) or APP C99, 5 h
Protocol: To determine effects of compounds on BACE1 vs. GS inhibition, we used N2a cells transiently transfected with full length APP (APP-FL) or with APP99 (APP-βCTF) as described previously ([Netzer et al., 2017]; [Sun et al., 2019]). After 48 h, media were removed and fresh media containing compound 1a and analogs were added. Following 5 h of incubation, cell supernatants were collected, and analyzed using MSD-ELISA for Aβ and sAPPα and western blot for sAPPβ.
We focused on IMTi-1 and its analogs 1d, 1f and 1p. […] To test whether these compounds lower Aβ levels by affecting the BACE and/or γ-secretase cleavages, we transfected wild-type (wt) cells with APP-FL and APP βCTF (C99), respectively, and incubated the cells with IMTi-1 (isomer) and analogs 1d, 1f and 1p. We used BACE inhibitor, MK8931, and γ-secretase inhibitor, DAPT, as controls and performed the experiments and processed the results as described previously ([Sun et al., 2019]).

[4] = In vivo brain permeability and retention, LC-MS/MS of brain and plasma; design: species or system C57BL/6J WT mice; conditions: for concentration at 4 h: C57BL/6J, mouse, ip, 2 months old WT mice, 50 mg/kg i.p., 4 h after injection, mesylate salt
Protocol: All procedures involving animals were approved by The Rockefeller University Institutional Animal Care and Use Committee and were in accordance with the National Institutes of Health guidelines. […] Mice were euthanized 4 h post drug administration and brain hemispheres and plasma were harvested and collected in pre-weighted tubes and snap-frozen in liquid nitrogen. To measure brain and plasma concentrations of the specific compounds, mouse brain tissue was homogenized and extracted using Ethanol, and plasma samples were extracted using Acetonitrile. Concentration of the drug and metabolites in brain and in plasma was determined by LC-MS/MS analysis.
After tubes were weighed to calculate brain weight and thawed to room temperature, 1 mL of EtOH (200 Proof) was added to the microcentrifuge tubes containing the harvested right brain hemispheres. 10 μL of 1 µM internal standard (ABG190, a synthetic analog of 1a) was added to each tube and samples were sonicated to homogeneity (∼2 min). Tubes were shaken at 40 min at room temperature (1K RPM) and centrifuged for 8 min at 13K RPM. The supernatant (0.9 mL) was transferred to a new collection tube and 0.5 mL EtOH was added to the pellet for a second round of extraction as described above. 600 μL of the supernatant was combined with the first collection before samples were submitted for LCMS-MS analysis ([Sun et al., 2019]).
300 μL of acetonitrile was added to collected blood samples. 10 μL of 1 µM internal standard (ABG190) was added to each tube and samples were sonicated to homogeneity (∼2 min). Tubes were […] at 13 K RPM for 9 min 300 μL of the supernatant was collected and combined with 500 µL of 5 mM ammonium formate before samples were submitted for LCMS-MS analysis ([Sun et al., 2019]).

N2a695 cells [5] = test: Screening of Aβ production in N2a695 cells (Aβ ELISA of cell supernatants); type: cell-based; conditions: N2a695 cells; for Aβ production in the screen (Fig. S1) / Aβ40 levels: 10 µM
Protocol: as §1, §2
Specifically, we exposed N2a695 cells to increasing concentrations of each compound and measured the production of Aβ38, 40, and 42. […] Remarkably, this occurs for all Aβ peptides tested shorter than 40 amino acids (Figure 2C). Moreover, for some compounds that modulate γ-secretase activity most conspicuously at 5 μM, this effect vanishes at 10 μM, relative to controls (Figure 2B, C). […]

Brain exposure ([4]; 2 months old mice, 4 h post administration)	concentration at 4 h ([4]; brain, read-out: Brain concentration) [ng/g]	concentration at 4 h ([4]; plasma, read-out: Plasma concentration) [ng/mL]	Structure (SMILES)	activity at 10 µM (N2a695 cells [1]; read-out: % Aβ38 of DMSO ctrl) [%]	activity at 10 µM (N2a695 cells [1]; read-out: % Aβ40 of DMSO ctrl) [%]	activity at 10 µM (N2a695 cells [1]; read-out: % Aβ42 of DMSO ctrl) [%]	activity at 5 µM (N2a695 cells [2]; read-out: % Aβ38 of DMSO ctrl) [%]	activity at 5 µM (N2a695 cells [2]; read-out: % Aβ40 of DMSO ctrl) [%]	activity at 5 µM (N2a695 cells [2]; read-out: % Aβ42 of DMSO ctrl) [%]	BACE and γ-secretase cleavage of APP, Aβ levels [3]	Aβ production in the screen (Fig. S1) (N2a695 cells [5])	Aβ40 levels (N2a695 cells [5]) [%]	Activity in Aβ production assays (N2a695 cells [5])
			CN(C)CCc1ccc(C(=O)Nc2cccc(-c3ccnc(Nc4cccnc4)n3)c2)cc1 [Compound 1p]	24	18	15	58	41	38	lower BACE and γ-secretase cleavage of APP			
			Cc1ccccc1Nc1nccc(-c2cccc(NC(=O)c3ccc(CN4CCN(C)CC4)cc3)c2)n1 [Compound 1a]	86	40	35	105	57	49				
			Cc1ccccc1Nc1nccc(-c2cccc(NC(=O)c3ccc(CNC4CCCCC4)cc3)c2)n1 [Compound 1k]	92	38	38	120	60	56				
			Cc1ccccc1Nc1nccc(-c2cncc(NC(=O)c3ccc(CN4CCNCC4)cc3)c2)n1 [Compound 1b]	61	34	33	95	56	53				
			Cc1ccccc1Nc1nccc(-c2cncc(NC(=O)c3ccc(C4CCCNC4)cc3)c2)n1 (stereo not drawn) [Compound 1L]	52	21	17	107	48	43				
			Cc1ccccc1Nc1nccc(-c2cccc(NC(=O)c3ccc(CNCC(C)(C)C)cc3)c2)n1 [Compound 1i]	85	41	46	106	56	58				
			Cc1ccccc1Nc1nccc(-c2cccc(NC(=O)c3ccc(N4CCN(C)CC4)cc3)c2)n1 [Compound 1d]	22	14	11	60	34	28	lower BACE and γ-secretase cleavage of APP			
			Cc1ccccc1Nc1nccc(-c2cncc(NC(=O)c3ccc(CNCC(C)(C)C)cc3)c2)n1 [Compound 1h]	80	43	43	106	64	58				
high brain exposure	92	550	Cc1ccccc1Nc1nccc(-c2cccc(NC(=O)c3ccc(CCN(C)C)cc3)c2)n1 [Compound 1f]	80	29	26	113	52	45	lower BACE and γ-secretase cleavage of APP			
			Cc1ccccc1Nc1nccc(-c2cncc(NC(=O)c3ccc(CCN(C)C)cc3)c2)n1 [Compound 1e]	91	46	44	99	57	54				
			Cc1ccccc1Nc1nccc(-c2cccc(NC(=O)c3ccc(CN(C(=O)OC(C)(C)C)C4CCCCC4)cc3)c2)n1 [Compound 1k-Boc]								increase in Aβ production		
			Cc1ccc(CN2CCN(Cc3ccc(C(=O)Nc4cccnc4)cc3)CC2)cc1Nc1ncccn1 [IMTi-3]									93	inactive
			Cc1ccccc1Nc1nccc(-c2cncc(NC(=O)c3ccc(CNC4CCCCC4)cc3)c2)n1 [Compound 1j]	123	73	65	112	83	75				
			Cc1ccccc1Nc1nccc(-c2cccc(NC(=O)c3ccc(CN(CC(C)(C)C)C(=O)OC(C)(C)C)cc3)c2)n1 [Compound 1i-Boc]								increase in Aβ production		
			Cc1ccc(Nc2nccc(-c3ccc(CNC4CCCCC4)cc3)n2)cc1NC(=O)c1cccnc1 [Compound 2b]	74	71	74	93	90	88				
			Cc1ccc(Nc2nccc(-c3ccc(CN4CCN(C)CC4)cc3)n2)cc1NC(=O)c1cccnc1 [IMTi-2]									68	active
			Cc1ccccc1Nc1nccc(-c2cncc(NC(=O)c3ccc(C4CCCN(C)C4)cc3)c2)n1 (stereo not drawn) [Compound 1n]	95	42	38	112	63	56				
